Test results from patent publication US20210401926A1, “PHARMACEUTICAL FORMULATIONS OF PEPTIDE INHIBITORS” (CANIMGUIDE THERAPEUTICS AB, priority 2018, published 2021).
Where no end group is shown, it is not given here.

What was measured:
healthy PBMC's = test: PBMC activation, CD69 or CD71 by flow cytometry, normal human AB serum; assay type: cell-based; settings: 40 μg/mL, 24 hours, RPMI plus 10% human AB serum
Procedure: FIG. 2A-B are a series of graphs illustrating effects of the full length peptide P28R and the 6 amino acid central sequence (32230, FFVKLS, SEQ ID NO: 1) in culture medium containing normal human AB serum. Activation is determined as percentage of cells with enhanced marker CD69 or CD71 using flow cytometry. PBMCs were incubated with the peptides (40 μg/mL) for 24 hours in RPMI plus 10% human AB serum. FIG. 2A illustrates the results of two experiments (420 and 422) performed for each peptide. FIG. 2B illustrates the results of two experiments (424 and 426) performed for each peptide.
P28R (SEQ ID NO: 2) can stimulate PBMC's from healthy controls in short term cultures when RPMI plus 10% normal human AB serum is used as culture medium. Truncations of P28R were also assessed for their ability to activate PBMC's. PBMCs were incubated with the peptides (40 μg/mL) for 24 hours in RPMI plus 10% human AB serum. PBMC activation was measured as percent cells with enhanced expression of either CD69 (FIG. 2A) or CD71 (FIG. 2B) using flow cytometry. Two experiments were performed for each peptide.
A test for direct stimulatory effects on immune cells was performed.

PBMCs [1] = test: PBMC activation (CD69) in culture medium containing cancer sera; assay type: cell-based; settings: sera from dogs with cancer or human patients with cancer instead of normal AB serum
Procedure: FIG. 3 is a graph illustrating a comparison of the full length peptide P28R and the 6 amino acid “P28 core” sequence (32230, FFVKLS, SEQ ID NO: 1) in culture medium containing sera from two different cancer patients (“human ca serum 1” 430 and (“human ca serum 2” 432).
Additionally, P28R and P28 core were tested for their ability to alleviate immunosuppression in cancer cells.

PBMCs [2] = test: Direct binding to PBMCs (immunocytochemistry, rosetting of coated beads); settings: immunocytochemistry or rosetting of coated beads

FFVKLS (Peptide 32230)
PBMC activation (enhanced expression of CD69 or CD71) (healthy PBMC's): did not activate healthy PBMC's | PBMC activation (enhanced expression of CD69) (PBMCs [1]): activated PBMCs

biotinylated P28R: biotinylated P28R (KKLDTFFVKLSLFTER; also: biotinylated, site not given here)
binding to PBMCs (PBMCs [2]): bind directly to PBMCs

peptide 32251: truncation of P28R, SEQ ID NO: 4 (KKLDTFFPKLSLFTER; Peptide 32251)
PBMC activation (enhanced expression of CD69 or CD71) (healthy PBMC's): did not activate healthy PBMC's
